# Measured values published in patent US20260325538A1, “THERAPY” (priority 2023, published 2026).
# Experiments:
# [1] = test system: Acinetobacter baumannii ST15 (NDM-1 OXA-51, ADC-263); test: Checkerboard MIC, fixed concentration of sBLI (Examples 11-17); assay type: cell-based
# Text: The antibiotics and serine β-lactamase-inhibitors (sBLIs) were purchased from the following suppliers: Ceftazidime (CAZ): Sigma-Aldrich; Cefepime (FEP): Sigma-Aldrich; Cefpodoxime (CEFP): MedChemExpress; Sulbactam (SUL): Sigma-Aldrich Avibactam (AVI): Biosynth; Vaborbactam (VAB): ABCR; Tazobactam (TAZ): Sigma-Aldrich; Taniborbactam (TAN): Sigma-Aldrich.
# In each of Examples 3-23, the compound of Example 26 of WO 2018/033719 was employed as the zinc chelator. The following abbreviations are used in these examples: sBLI means serine-β-lactamase inhibitor; CFU means colony-forming unit, which is a group of microbes that grows from a single cell on a petri plate; DMSO means dimethyl sulfoxide; MHB means Mueller-Hinton broth; caMHB means cation-adjusted Mueller-Hinton broth; MIC means minimum inhibitory concentration—the lower the MIC, the more efficient the combination against the respective bacterial strain.
# General Protocol 2 Used in Examples 11-23 Employing a Fixed Concentration of sBLI within Each Experiment:
# Antimicrobial susceptibility testing (AST) by broth microdilution (MIC determination) was performed according to The European Committee on Antimicrobial Susceptibility Testing (EUCAST) guidelines (see Reading guide for broth microdilution Version 5.0, 2024: https://www.eucast.org).
# Sterile clear round bottom polystyrene (non-treated) 96-well microplates (Corning 3788) were used for making serial two-fold dilutions of the antibiotic in cation-adjusted Mueller Hinton II broth (caMHB; Thermo Scientific, T3462, containing 29.4 μM Zn^2+ or MILLIPORE, 90922-500G, containing 5.6 μM Zn^2+), across the columns of the microtiter plate (128-0.06 μg/mL; columns 1-12).
# The checkerboard plates were all modified by adding a serine β-lactamase inhibitor (sBLI) at a fixed concentration of 16 μg/mL. Additionally, the zinc chelator was added at various fixed concentrations. Samples were mixed so that all plates contained a control containing antibiotic alone (no sBLI, no zinc chelator), a sample containing antibiotic and sBLI (double combination; no zinc chelator), and a sample containing antibiotic, sBLI and zinc chelator (triple combination). All test wells used in each plate contained growth medium (caMHB), and inoculated bacteria at a final inoculum between 3-7×10^5 CFU/mL. […] Synergy for the triple combination (antibiotic, sBLI, and zinc chelator) was defined as when the MIC in any of the rows containing the zinc chelator in combination with antibiotic and sBLI (triple combination), was lower than for antibiotic alone and lower than for the antibiotic and sBLI double combination.
# (§1) An X in rows 1-4 in the table indicates growth of the bacterial inoculum, while a blank cell indicates no growth. Concentrations (μg/mL) of FEP are given in row 0. AVI and the zinc chelator were added in fixed concentrations (AVI at 16 μg/mL in rows 2-4, zinc chelator at 16 μg/mL in row 3 and at 8 μg/mL in row 4). As a control, the effect of FEP alone was tested (row 1). All wells contained bacterial growth medium (caMHB, 29.4 μM Zn^2+) and were inoculated with the test bacterium. The grey cells indicate the FEP MIC.
# as §1, with “SUL” for “AVI”, “(SUL” for “(AVI”
# An X in rows 1-4 in the table indicates growth of the bacterial inoculum, while a blank cell indicates no growth. Concentrations (μg/mL) of FEP are given in row 0. TAZ and the zinc chelator were added in fixed concentrations (TAZ at 16 μg/mL in rows 2-4, zinc chelator at 16 μg/mL in row 3 and at 8 μg/mL in row 4). […]
# [2] = test system: gram-negative bacteria with MBL, for example Klebsiella pneumoniae, E. coli and Pseudomonas aeruginosa; details: in combination with meropenem; cited from earlier work
# [3] = test system: many strains of Acinetobacter baumannii; details: in combination with meropenem; cited from earlier work
smiles,measurement,setting,value
CN(C[C@H](O)[C@@H](O)[C@H](O)[C@H](O)CO)C(=O)c1ccc(CN(Cc2ccccn2)Cc2ccccn2)nc1 [zinc chelator],synergy with the zinc chelator,"[1]; zinc chelator 4 μg/mL, with CEFP and SUL 16 μg/mL, caMHB 5.6 μM Zn2+",Synergy
same,synergy with the zinc chelator,"[1]; zinc chelator 4 μg/mL, with FEP and AVI 16 μg/mL, caMHB 5.6 μM Zn2+",Synergy
same,synergy with the zinc chelator,"[1]; zinc chelator 8 μg/mL, with CEFP and SUL 16 μg/mL, caMHB 5.6 μM Zn2+",Synergy
same,synergy with the zinc chelator,"[1]; zinc chelator 8 μg/mL, with FEP and AVI 16 μg/mL, caMHB 5.6 μM Zn2+",Synergy
same,synergy with the zinc chelator,"[1]; zinc chelator 8 μg/mL, with FEP and AVI 16 μg/mL, caMHB 29.4 μM Zn2+",Synergy
same,synergy with the zinc chelator,"[1]; zinc chelator 8 μg/mL, with FEP and SUL 16 μg/mL, caMHB 29.4 μM Zn2+",Synergy
same,synergy with the zinc chelator,"[1]; zinc chelator 8 μg/mL, with FEP and TAZ 16 μg/mL, caMHB 5.6 μM Zn2+",Synergy
same,synergy with the zinc chelator,"[1]; zinc chelator 8 μg/mL, with FEP and TAZ 16 μg/mL, caMHB 29.4 μM Zn2+",Synergy
same,synergy with the zinc chelator,"[1]; zinc chelator 16 μg/mL, with CEFP and SUL 16 μg/mL, caMHB 5.6 μM Zn2+",Synergy
same,synergy with the zinc chelator,"[1]; zinc chelator 16 μg/mL, with CEFP and SUL 16 μg/mL, caMHB 29.4 μM Zn2+",Synergy
same,synergy with the zinc chelator,"[1]; zinc chelator 16 μg/mL, with FEP and AVI 16 μg/mL, caMHB 29.4 μM Zn2+",Synergy
same,synergy with the zinc chelator,"[1]; zinc chelator 16 μg/mL, with FEP and SUL 16 μg/mL, caMHB 29.4 μM Zn2+",Synergy
same,synergy with the zinc chelator,"[1]; zinc chelator 16 μg/mL, with FEP and TAZ 16 μg/mL, caMHB 5.6 μM Zn2+",Synergy
same,synergy with the zinc chelator,"[1]; zinc chelator 16 μg/mL, with FEP and TAZ 16 μg/mL, caMHB 29.4 μM Zn2+",Synergy
same,sensitivity of gram-negative bacteria with MBL to meropenem,[2],the sensitivity of these bacteria towards the antibiotic drug is reinstated
same,effect of combination with meropenem,[3],poor effect
